In publication PMC9603901, “Therapeutic Potential of Antimicrobial Peptide PN5 against Multidrug-Resistant E. coli and Anti-Inflammatory Activity in a Septic Mouse Model” (Microbiology Spectrum, 2022):
Converted amounts (≈) assume the structure as drawn.

How the values were obtained:
A. baumannii KCTC 2508 = type: cell-based, Acinetobacter baumannii; details: microdilution, NB, 18 to 24 h, 37°C, three independent experiments
Method: (§1) Bacterial cells were cultured at 37°C in the appropriate culture media with shaking (180 rpm). Luria-Bertani broth (LB) (244620; BD Difco) was used for E. coli ATCC 25922, ASEC strains, and B. subtilis KCTC 2217. Nutrient broth (NB) (234000; BD Difco) was used for P. aeruginosa ATCC 27853, S. Typhimurium KCTC 1926, and A. baumannii KCTC 2508. Tryptic soy broth (TSB) (211825; BD Difco) was used for S. aureus ATCC 25923. Finally, brain heart infusion (BHI) (237500; BD Difco) was used for L. monocytogenes KCTC 3710. The antimicrobial activity of each peptide was determined using microdilution assays. To this end, 2-fold serial dilution series of each peptide (from 1 to 64 μM) were added to duplicate media with 10 mM sodium phosphate buffer (pH 7.4). Fifty microliters of the peptide and antibiotic solution was added to each well of a 96-well plate (32096, surface nontreatment; SPL Life Sciences). Then, 50 μL of 2 × 10^5 CFU mL^−1 of bacteria was added to each well, and the samples were incubated for 18 to 24 h without shaking at 37°C.

MDR E. coli ASEC 19 = assay: microbe, parasite or virus in culture; type: cell-based, Escherichia coli; details: microdilution, LB, 18 to 24 h, 37°C, three independent experiments
Method: as §1

MDR E. coli ASEC 16 = assay: microbe, parasite or virus in culture; type: cell-based, Escherichia coli; details: microdilution, LB, 18 to 24 h, 37°C, three independent experiments
Method: as §1

MDR E. coli ASEC 15 = assay: microbe, parasite or virus in culture; type: cell-based, Escherichia coli; details: microdilution, LB, 18 to 24 h, 37°C, three independent experiments
Method: as §1

MDR E. coli ASEC 9 = assay: microbe, parasite or virus in culture; type: cell-based, Escherichia coli; details: microdilution, LB, 18 to 24 h, 37°C, three independent experiments
Method: as §1

MDR E. coli ASEC 5 = assay: microbe, parasite or virus in culture; type: cell-based, Escherichia coli; details: microdilution, LB, 18 to 24 h, 37°C, three independent experiments
Method: as §1

MDR E. coli ASEC 10 = assay: microbe, parasite or virus in culture; type: cell-based, Escherichia coli; details: microdilution, LB, 18 to 24 h, 37°C, three independent experiments
Method: as §1

MDR E. coli ASEC 11 = assay: microbe, parasite or virus in culture; type: cell-based, Escherichia coli; details: microdilution, LB, 18 to 24 h, 37°C, three independent experiments
Method: as §1

MDR E. coli ASEC 7 = assay: microbe, parasite or virus in culture; type: cell-based, Escherichia coli; details: microdilution, LB, 18 to 24 h, 37°C, three independent experiments
Method: as §1

MDR E. coli ASEC 4 = assay: microbe, parasite or virus in culture; type: cell-based, Escherichia coli; details: microdilution, LB, 18 to 24 h, 37°C, three independent experiments
Method: as §1

MDR E. coli ASEC 18 = assay: microbe, parasite or virus in culture; type: cell-based, Escherichia coli; details: microdilution, LB, 18 to 24 h, 37°C, three independent experiments
Method: as §1

MDR E. coli ASEC 14 = assay: microbe, parasite or virus in culture; type: cell-based, Escherichia coli; details: microdilution, LB, 18 to 24 h, 37°C, three independent experiments
Method: as §1

MDR E. coli ASEC 12 = assay: microbe, parasite or virus in culture; type: cell-based, Escherichia coli; details: microdilution, LB, 18 to 24 h, 37°C, three independent experiments
Method: as §1

MDR E. coli ASEC 3 = assay: microbe, parasite or virus in culture; type: cell-based, Escherichia coli; details: microdilution, LB, 18 to 24 h, 37°C, three independent experiments
Method: as §1

MDR E. coli ASEC 8 = assay: microbe, parasite or virus in culture; type: cell-based, Escherichia coli; details: microdilution, LB, 18 to 24 h, 37°C, three independent experiments
Method: as §1

MDR E. coli ASEC 6 = assay: microbe, parasite or virus in culture; type: cell-based, Escherichia coli; details: microdilution, LB, 18 to 24 h, 37°C, three independent experiments
Method: as §1

MDR E. coli ASEC 17 = assay: microbe, parasite or virus in culture; type: cell-based, Escherichia coli; details: microdilution, LB, 18 to 24 h, 37°C, three independent experiments
Method: as §1

MDR E. coli ASEC 1 = assay: microbe, parasite or virus in culture; type: cell-based, Escherichia coli; details: microdilution, LB, 18 to 24 h, 37°C, three independent experiments
Method: as §1

MDR E. coli ASEC 13 = assay: microbe, parasite or virus in culture; type: cell-based, Escherichia coli; details: microdilution, LB, 18 to 24 h, 37°C, three independent experiments
Method: as §1

MDR E. coli ASEC 2 = assay: microbe, parasite or virus in culture; type: cell-based, Escherichia coli; details: microdilution, LB, 18 to 24 h, 37°C, three independent experiments
Method: as §1

B. subtilis KCTC 2217 = type: cell-based, Bacillus subtilis; details: microdilution, LB, 18 to 24 h, 37°C, three independent experiments
Method: as §1

mouse red blood cells = assay: Hemolytic activity; type: cell-based; details: 8% mouse red blood cells, 1 h, 37°C
Method: (§2) RAW 264.7 cells (mouse macrophage cells) were maintained in high-glucose Dulbecco’s modified Eagle medium (DMEM) (Welgene, Daegu, South Korea) supplemented with 10% fetal bovine serum (FBS) (Gibco) and 1% penicillin at 37°C in humidified 5% CO2. Cells (2 × 10^5 cells well^−1) were seeded into DMEM supplemented with 10% FBS medium in a 96-well plate. The MTT assay was performed after culturing the cells in 96-well plates at a density of 2 × 10^5 cells well^−1, followed by treatment with serially diluted PN5, magainin 2, and melittin. After 24 h, the medium was discarded, and 100 μL DMEM and 10% FBS medium containing 0.5 mg mL^−1 MTT were added to each well. After 4 h of incubation, the medium was discarded and dimethyl sulfoxide was added to each well to solubilize the formazan. The optical densities at 570 and 650 nm (OD570 and OD650, respectively) of the treated cells were compared to those of control cells. The hemolytic activity of the peptides was evaluated as the release of hemoglobin from an 8% mRBC suspension. A 100-μL aliquot of the 8% mRBC suspension was added to the wells of a 96-well plate, and 100 μL of peptide solution in phosphate-buffered saline (PBS) was added at a final peptide concentration of 200 μM. After incubation for 1 h at 37°C with shaking (50 rpm), the suspensions were centrifuged at 1,000 × g for 5 min. The absorbance of the supernatant was measured at 414 nm using a Versa Max microplate reader (Molecular Devices). As a control, no hemolysis and complete hemolysis were determined in PBS and 0.1% Triton X-100, respectively. The degree of hemolysis was calculated using the following equation as described in reference: %hemolysis=[(A414withpeptide-A414withPBS)/(A414with0.1%TritonX-100-A414 with PBS)] × 100

[1] = test system: L. monocytogenes KCTC 3710; type: cell-based, Listeria monocytogenes; details: microdilution, BHI, 18 to 24 h, 37°C, three independent experiments
Method: as §1

RAW 264.7 cells [2] = assay: IncuCyte Cytotox green time-dependent cytotoxicity; type: cell-based, mouse; details: 25 μM
Method: An IncuCyte cytotoxicity assay (Essen BioScience, Inc., Ann Arbor, MI, USA) was performed to evaluate time-dependent cytotoxicity. RAW 264.7 cells (2 × 10^5 cells well^−1) were seeded into 96-well culture plates and then treated with peptides and IncuCyte Cytotox green reagent (Essen BioScience, Inc.). Up to 200 μM PN5 and 25 μM melittin were used to treat RAW 264.7 cells, with the concentrations serially diluted by half. […] The cells were stained with IncuCyte Cytotox green reagent. The viability was measured using IncuCyte software (Essen BioScience, Inc.) ([56]).

RAW 264.7 cells [3] = assay: MTT cell viability; type: cell-based, mouse; details: 24 h
Method: as §2

S. Typhimurium KCTC 1926 = type: cell-based, Salmonella enterica serovar Typhimurium; details: microdilution, NB, 18 to 24 h, 37°C, three independent experiments
Method: as §1

S. aureus ATCC 25923 = type: cell-based, Staphylococcus aureus; details: microdilution, TSB, 18 to 24 h, 37°C, three independent experiments
Method: as §1

P. aeruginosa ATCC 27853 = type: cell-based, Pseudomonas aeruginosa; details: microdilution, NB, 18 to 24 h, 37°C, three independent experiments
Method: as §1

E. coli ATCC 25922 = assay: NPN uptake, outer membrane permeability; type: cell-based, Escherichia coli; details: E. coli ATCC 25922, 4× MIC, 60 min, 10 μM NPN, relative to 0.1% Triton X-100
Method: The ability of PN5 to permeate the outer bacterial membrane was determined based on the uptake of NPN, a fluorescent dye. Briefly, E. coli 25922 cells grown to the logarithmic phase at 37°C were harvested by centrifugation at 6,000 × g and 4°C for 10 min. The bacterial cells were washed twice with 5 mM HEPES buffer (pH 7.4) and resuspended to OD600 of 0.4. NPN was added to the bacterial suspension at a final concentration of 10 μM. Aliquots of the peptides were added to the bacterial suspensions. Background fluorescence was recorded using a fluorescence spectrophotometer. The excitation and emission wavelengths were set to 350 and 420 nm, respectively. The values were converted to percentage of NPN uptake using the equation % NPN uptake = [(Fobs − F0)/(F100 − F0)] × 100, where Fobs is the fluorescence observed at each peptide concentration, F0 is the initial fluorescence of NPN with E. coli in the absence of peptides, and F100 is the fluorescence of NPN upon the addition of 0.1% Triton X-100, which was used as a positive control ([57]).

For `CC[C@H](C)[C@H](NC(=O)CN)C(=O)NCC(=O)N[C@@H](C)C(=O)N[C@H](C(=O)N[C@@H](CC(C)C)C(=O)N[C@@H](CCCCN)C(=O)N[C@H](C(=O)N[C@@H](CC(C)C)C(=O)N[C@H](C(=O)N[C@H](C(=O)NCC(=O)N[C@@H](CC(C)C)C(=O)N1CCC[C@H]1C(=O)N[C@@H](C)C(=O)N[C@@H](CC(C)C)C(=O)N[C@H](C(=O)N[C@@H](CO)C(=O)N[C@@H](Cc1c[nH]c2ccccc12)C(=O)N[C@H](C(=O)N[C@@H](CCCCN)C(=O)N[C@@H](CCCNC(=N)N)C(=O)N[C@@H](CCCCN)C(=O)N[C@@H](CCCNC(=N)N)C(=O)N[C@@H](CCC(N)=O)C(=O)N[C@@H](CCC(N)=O)C(N)=O)[C@@H](C)CC)[C@@H](C)CC)[C@@H](C)O)[C@@H](C)O)C(C)C)C(C)C` [Melittin], the MIC (A. baumannii KCTC 2508) was 2 µM, the MIC (MDR E. coli ASEC 19) was 8 (22.77) μM and the MIC (MDR E. coli ASEC 16) was 4 (11.39) μM. The MIC (MDR E. coli ASEC 15) was 4 (11.39) μM, the MIC (MDR E. coli ASEC 9) was 4 (11.39) μM and the MIC (MDR E. coli ASEC 5) was 2 (5.69) μM. The MIC (MDR E. coli ASEC 10) was 4 (11.39) μM, the MIC (MDR E. coli ASEC 11) was 4 (11.39) μM and the MIC (MDR E. coli ASEC 7) was 4 (11.39) μM. The MIC (MDR E. coli ASEC 4) was 8 (22.77) μM, the MIC (MDR E. coli ASEC 18) was 4 (11.39) μM and the MIC (MDR E. coli ASEC 14) was 2 (5.69) μM. The MIC (MDR E. coli ASEC 12) was 4 (11.39) μM, the MIC (MDR E. coli ASEC 3) was 4 (11.39) μM and the MIC (MDR E. coli ASEC 8) was 4 (11.39) μM. For the same molecule, the MIC (MDR E. coli ASEC 6) was 4 (11.39) μM, the MIC (MDR E. coli ASEC 17) was 8 (22.77) μM and the MIC (MDR E. coli ASEC 1) was 4 (11.39) μM. The MIC (MDR E. coli ASEC 13) was 4 (11.39) μM, the MIC (MDR E. coli ASEC 2) was 4 (11.39) μM and the MIC (B. subtilis KCTC 2217) was 2 µM. For the same molecule, the hemolysis (mouse red blood cells; 3.125 μM, PBS, A414, mean of three experiments) was 44.02%, the hemolysis (mouse red blood cells; 6.25 μM) was 77.24% and the MIC [1] was 4 µM (≈ 11.4 µg/mL). The “cytotoxicity, Cytotox green fluorescence” value (RAW 264.7 cells [2]) was “immediately damaged the cells”, the “toxicity, MTT assay” value (RAW 264.7 cells [3]; 6.25 μM) was “over 50%” and the MIC (S. Typhimurium KCTC 1926) was 4 µM (≈ 11.4 µg/mL).
Magainin 2 was tested, and the MIC (S. aureus ATCC 25923) was 39.47 µg/mL, the MIC (A. baumannii KCTC 2508) was 19.74 µg/mL and the MIC (MDR E. coli ASEC 16) was 8 (19.74) μM. For the same molecule, the MIC (MDR E. coli ASEC 15) was 16 (39.47) μM, the MIC (MDR E. coli ASEC 9) was 8 (19.74) μM and the MIC (MDR E. coli ASEC 5) was 16 (39.47) μM. For the same molecule, the MIC (MDR E. coli ASEC 10) was 16 (39.47) μM, the MIC (MDR E. coli ASEC 11) was 16 (39.47) μM and the MIC (MDR E. coli ASEC 7) was 8 (19.74) μM. The MIC (MDR E. coli ASEC 18) was 16 (39.47) μM, the MIC (MDR E. coli ASEC 14) was 4 (9.87) μM and the MIC (MDR E. coli ASEC 12) was 16 (39.47) μM. For the same molecule, the MIC (MDR E. coli ASEC 3) was 16 (39.47) μM, the MIC (MDR E. coli ASEC 8) was 16 (39.47) μM and the MIC (MDR E. coli ASEC 6) was 4 (9.87) μM. For the same molecule, the MIC (MDR E. coli ASEC 1) was 16 (39.47) μM, the MIC (MDR E. coli ASEC 13) was 16 (39.47) μM and the MIC (MDR E. coli ASEC 2) was 8 (19.74) μM. It also gave an MIC (P. aeruginosa ATCC 27853) of 32 µM, an MIC (B. subtilis KCTC 2217) of 39.47 µg/mL and an NPN uptake (E. coli ATCC 25922) of 35.7%. For the same molecule, the “toxicity, MTT assay” value (RAW 264.7 cells [3]; 200 μM) was “over 50%”.
